The results in this text go back to US8008299B2, “Urotensin II receptor antagonists” (Janssen Pharmaceutica, N.V., priority 2007, dated 2011).

Where two headings read alike, the source gives them in different places.

Broadly, the Ki is a measure of affinity in units of concentration, obtained from inhibition or displacement. The term IC50 denotes the concentration at which inhibition is half-maximal.

For assay [1], the target named is T1, UT receptors in HSMM (Human Skeletal Muscle Myoblasts) (Homo sapiens, UniProt Q9UKP6).
T1 sequence (Q9UKP6 1-389): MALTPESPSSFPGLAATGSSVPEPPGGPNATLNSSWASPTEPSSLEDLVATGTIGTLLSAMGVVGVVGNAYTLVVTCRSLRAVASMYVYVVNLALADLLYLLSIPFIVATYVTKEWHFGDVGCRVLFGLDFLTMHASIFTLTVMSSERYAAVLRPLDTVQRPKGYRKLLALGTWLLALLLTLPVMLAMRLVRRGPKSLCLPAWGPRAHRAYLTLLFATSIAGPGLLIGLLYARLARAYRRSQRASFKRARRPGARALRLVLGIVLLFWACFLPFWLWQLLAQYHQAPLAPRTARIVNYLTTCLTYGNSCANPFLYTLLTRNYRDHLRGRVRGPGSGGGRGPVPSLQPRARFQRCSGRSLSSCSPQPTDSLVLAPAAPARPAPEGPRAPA
The assay is described as follows: Human Radioligand Binding Assay ((^125I)-U-II binding to intact HSMM).

The target of assay [2] is T2, rat GPR14 (U-II receptor) (Rattus norvegicus, UniProt P49684).
T2 construct: expressed in transfected cells
T2 sequence (P49684 1-386): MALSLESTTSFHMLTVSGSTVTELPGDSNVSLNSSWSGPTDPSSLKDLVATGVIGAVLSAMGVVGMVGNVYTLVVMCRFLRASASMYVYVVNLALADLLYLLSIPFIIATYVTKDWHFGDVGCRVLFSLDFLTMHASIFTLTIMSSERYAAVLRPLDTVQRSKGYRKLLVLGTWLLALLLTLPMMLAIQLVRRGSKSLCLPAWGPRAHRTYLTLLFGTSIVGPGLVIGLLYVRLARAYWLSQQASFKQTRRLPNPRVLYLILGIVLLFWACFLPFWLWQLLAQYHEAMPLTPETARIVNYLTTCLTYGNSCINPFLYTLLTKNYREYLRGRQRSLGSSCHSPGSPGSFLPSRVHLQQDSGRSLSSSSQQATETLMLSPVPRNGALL
Nature of the assay: Rat UII Calcium Mobilization FLIPR Assay. Type of assay: cell-based. The conditions noted are these: CHO cells transfected with rat GPR14; antagonist activity after 5 min incubation vs agonist (Ac)-CFWK(2-NaI)C-NH2 at 1 nM. The text has this: To derive these cells, the complete coding sequence of rat U-II (Genbank Accession No. U32673) was amplified by nested PCR from rat heart marathon-Ready cDNA. […] The PCR products were cloned into pcDNA3 (Invitrogen) digested with EcoR I and Xba I. Clones containing rat U-II receptor were verified by complete sequencing of the U-II receptor insert to ensure a lack of PCR-introduced errors. The constructed vector was transfected into CHO cells by using lipofectamine (GIBCO BRL). CHO cells with high expression of rat U-II receptor were selected and established as stable cell lines by using G418. CHO cells were seeded at 25,000 cells per well into 96-well, black-wall, clear-bottom microtiter plates 24 h before assay. Cells in culture media (DMEM/F12 containing 15 mM HEPES, L-glutamine, pyridoxine hydrochloride; 10% fetal bovine serum; 1 mg/mL G418 sulfate; antibiotic-antimycotic; pH 7.4) were loaded with proprietary dye, from the FLIPR Calcium Assay Kit (Molecular Devices), prepared in assay buffer (Hanks Balanced Salts Solution, 20 mM HEPES, 0.1% BSA, 2.5 mM probenecid, pH 7.4), and incubated for 1 h at 37° C. Calcium mobilization determinations were performed at room temperature (23° C.).
(In general: Calcium flux is commonly read through the fluorescence of an indicator in the cells.)

Assay [3] concerns the target T3, Human UII (U-II receptor) in 6D9 human rhabdomyosarcoma cells (Homo sapiens, UniProt Q9UKP6).
T3 construct: 6D9: isolated by dilution subcloning of RMS13 cells, ATCC® Number: CRL-2061; host or cells: 6D9 human rhabdomyosarcoma cells (subclone of RMS13)
T3 sequence (Q9UKP6 1-389): T1 sequence (Q9UKP6 1-389)
The assay is described as follows: Human UII Calcium Mobilization Assay. Type of assay: cell-based. The procedure:
25 μL of dye solution was added to the wells such that the final liquid volume before agonist/antagonist treatment was 50 μL for all assays. The cell plates were incubated at 37° C. for 45 minutes and the fluorescence intensity was measured on a Fluorometric Imaging Plate Reader (FLIPR^TETRA, Molecular Devices, Sunnyvale, Calif.).
Antagonist and agonist U-II were added at room temperature on the FLIPR^TETRA, and the fluorescence intensity before and after addition was measured over a period of 4 minutes. The dye incubation time and temperature as well as instrument setting was adjusted so the fluorescence intensity could be compared between plates on the same day. EC50 and IC50 were analyzed using GraphPad Prism 4 software (GraphPad Software Inc., San Diego, Calif.).
For assays, U-II agonist, U-II antagonist and urantide were diluted with HBSS/HEPES containing 0.01% FBS.
Test compounds were dissolved in DMSO at 10 mM concentration. The serial dilutions were carried out in HBSS/HEPES. The highest final DMSO concentration was at 0.1%.

Setting [4] is: 6D9 human rhabdomyosarcoma cells, FLIPR TETRA, average, read-out: Human UII Ca+ Mobilization Average IC50.

On to `CCN1CCN(c2cccc3c2CN([C@H](CCCNCc2ccc(F)cc2)c2ccc(OC)c(OC)c2)C3=O)CC1` [Cpd 91, 2-[(1R)-1-(3,4-dimethoxy-phenyl)-4-(4-fluoro-benzylamino)-butyl]-4-(4-ethyl-piperazin-1-yl)-2,3-dihydro-isoindol-1-one], for which the Ki in assay [1] was determined as 62 nM. For the same compound, the IC50 was 3 nM in assay [2] and 106 nM in assay [3] (setting [4]).

In turn, `CCN1CCN(c2cccc3c2CN([C@H](CCCNc2cccc[n+]2[O-])c2ccc(OC)c(OC)c2)C3=O)CC1` [Cpd 93, 2-[(1R)-1-(3,4-dimethoxy-phenyl)-4-(1-oxy-pyridin-2-ylamino)-butyl]-4-(4-ethyl-piperazin-1-yl)-2,3-dihydro-isoindol-1-one] yielded a Ki in assay [1] of 125 nM. The IC50 in assay [2] was found to be 82 nM; in assay [3] (setting [4]), 555 nM.

Consider `CCN1CCN(c2cccc3c2CN([C@H](CCCn2cc(C)nc2C)c2ccc(OC)c(OC)c2)C3=O)CC1` [Cpd 102, 2-[(1R)-1-(3,4-dimethoxy-phenyl)-4-(2,4-dimethyl-imidazol-1-yl)-butyl]-4-(4-ethyl-piperazin-1-yl)-2,3-dihydro-isoindol-1-one], for which the Ki in assay [1] is > 300 nM. In addition, the IC50 in assay [2] worked out at 93 nM; in assay [3] (setting [4]) it was 1280 nM.

For `CCN1CCN(c2cccc3c2CN([C@H](CCCNC(=O)c2cn[nH]c2)c2ccc(OC)c(OC)c2)C3=O)CC1` [Cpd 79, 1H-pyrazole-4-carboxylic acid {(4R)-4-(3,4-dimethoxy-phenyl)-4-[4-(4-ethyl-piperazin-1-yl)-1-oxo-1,3-dihydro-isoindol-2-yl]-butyl}-amide], in assay [1], the Ki was determined as 39 nM. Further, the values for the IC50 in assay [2] and in assay [3] (setting [4]) were 6 nM and 133 nM, respectively.

Regarding `CCN1CCN(c2cccc3c2CN([C@H](CCCN(C)S(=O)(=O)N(C)C)c2ccc(OC)c(OC)c2)C3=O)CC1` [Cpd 1, dimethylaminosulfonic acid {(4R)-4-(3,4-dimethoxy-phenyl)-4-[4-(4-ethyl-piperazin-1-yl)-1-oxo-1,3-dihydro-isoindol-2-yl]-butyl}-methyl-amide], the affinity in assay [1], expressed as Ki, was 55 nM. For the same compound, the figures for the IC50 in assay [2] and in assay [3] (setting [4]) were 7 nM and 204 nM, respectively.

`CCN1CCN(c2cccc3c2CN([C@H](CCCNS(=O)(=O)c2cn(C)c(C)n2)c2ccc(OC)c(OC)c2)C3=O)CC1` [Cpd 82, 1,2-dimethyl-1H-imidazole-4-sulfonic acid {(4R)-4-(3,4-dimethoxy-phenyl)-4-[4-(4-ethyl-piperazin-1-yl)-1-oxo-1,3-dihydro-isoindol-2-yl]-butyl}-amide] returned a Ki in assay [1] of 25 nM. For the same compound, the IC50 in assay [2] stood at 23 nM; in assay [3] (setting [4]), 51 nM.

In the case of `CCN1CCN(c2cccc3c2CN([C@H](CCCOCc2ccccc2Cl)c2ccc(OC)c(OC)c2)C3=O)CC1` [Cpd 47, 2-[(1R)-4-(2-chloro-benzyloxy)-1-(3,4-dimethoxy-phenyl)-butyl]-4-(4-ethyl-piperazin-1-yl)-2,3-dihydro-isoindol-1-one], the Ki in assay [1] was > 300 nM. Besides, the IC50 in assay [2] was determined as 1300 nM; in assay [3] (setting [4]) it was 6140 nM.

Take `CCN1CCN(c2cccc3c2CN([C@H](CCCNC(=O)c2cccs2)c2ccc(OC)c(OC)c2)C3=O)CC1` [Cpd 81, thiophene-2-carboxylic acid {(4R)-4-(3,4-dimethoxy-phenyl)-4-[4-(4-ethyl-piperazin-1-yl)-1-oxo-1,3-dihydro-isoindol-2-yl]-butyl}-amide]: the Ki in assay [1] (read-out: Human UII Average Binding Ki, intact HSMM, 0.150 nM (^125I)-U-II, 3 h, 25° C.) came to 18 nM. The results for the IC50 in assay [2] and in assay [3] were 7 nM and 137 nM, respectively.

With `CCN1CCN(c2cccc3c2CN([C@H](CCCN(C)Cc2cccc(F)c2)c2ccc(OC)c(OC)c2)C3=O)CC1` [Cpd 98, 2-{(1R)-1-(3,4-dimethoxy-phenyl)-4-[(3-fluoro-benzyl)-methyl-amino]-butyl}-4-(4-ethyl-piperazin-1-yl)-2,3-dihydro-isoindol-1-one], the affinity in assay [1] corresponds to a Ki of 59 nM. The figures for the IC50 in assay [2] and in assay [3] (setting [4]) were 4 nM and 105 nM, respectively.

Regarding `CCN1CCN(c2cccc3c2CN([C@H](CCCNc2nc(OC)cc(OC)n2)c2ccc(OC)c(OC)c2)C3=O)CC1` [Cpd 10, 2-[(1R)-1-(3,4-dimethoxy-phenyl)-4-(4,6-dimethoxy-pyrimidin-2-ylamino)-butyl]-4-(4-ethyl-piperazin-1-yl)-2,3-dihydro-isoindol-1-one], in assay [1], the affinity, expressed as Ki, was 81 nM. Further, the IC50 in assay [2] was 4 nM; in assay [3] (setting [4]), 617 nM.

For `CCN1CCN(c2cccc3c2CN([C@H](CCCNC(=O)C(F)(F)F)c2ccc(OC)c(OC)c2)C3=O)CC1` [Cpd 67, N-{(4R)-4-(3,4-dimethoxy-phenyl)-4-[4-(4-ethyl-piperazin-1-yl)-1-oxo-1,3-dihydro-isoindol-2-yl]-butyl}-2,2,2-trifluoro-acetamide], in assay [1], the Ki turned out to be 43 nM. The results for the IC50 in assay [2] and in assay [3] (setting [4]) were 50 nM and 865 nM, respectively.

`CCN1CCN(c2cccc3c2CN([C@H](CCCN(C)Cc2cccs2)c2ccc(OC)c(OC)c2)C3=O)CC1` [Cpd 95, 2-[(1R)-1-(3,4-dimethoxy-phenyl)-4-(methyl-thiophen-2-ylmethyl-amino)-butyl]-4-(4-ethyl-piperazin-1-yl)-2,3-dihydro-isoindol-1-one]: the affinity in assay [1], expressed as Ki, was 23 nM. Further, the IC50 in assay [2] was 5 nM; in assay [3] (setting [4]), 92 nM.

`CCN1CCN(c2cccc3c2CN([C@H](CCCNc2ccccc2)c2ccc(OC)c(OC)c2)C3=O)CC1` [Cpd 40, 2-[(1R)-1-(3,4-dimethoxy-phenyl)-4-phenylamino-butyl]-4-(4-ethyl-piperazin-1-yl)-2,3-dihydro-isoindol-1-one] gave a Ki in assay [1] of 75 nM. Further, the IC50 in assay [2] was found to be 10 nM; in assay [3] (setting [4]) it was 370 nM.

Consider `CCN1CCN(c2cccc3c2CN([C@H](CCCN(C)S(=O)(=O)c2cn(C)c(C)n2)c2ccc(OC)c(OC)c2)C3=O)CC1` [Cpd 39, 1,2-dimethyl-1H-imidazole-4-sulfonic acid {(4R)-4-(3,4-dimethoxy-phenyl)-4-[4-(4-ethyl-piperazin-1-yl)-1-oxo-1,3-dihydro-isoindol-2-yl]-butyl}-methyl-amide], for which the Ki in assay [1] is 162 nM. The IC50 in assay [2] is 138 nM; in assay [3] (setting [4]), 988 nM.

`CCN1CCN(c2cccc3c2CN([C@H](CCCN2Cc4ccccc4C2)c2ccc(OC)c(OC)c2)C3=O)CC1` [Cpd 100, 2-[(1R)-4-(1,3-dihydro-isoindol-2-yl)-1-(3,4-dimethoxy-phenyl)-butyl]-4-(4-ethyl-piperazin-1-yl)-2,3-dihydro-isoindol-1-one] displayed a Ki in assay [1] of 24 nM. The IC50 worked out at 8 nM in assay [2] and 319 nM in assay [3] (setting [4]).

For the compound `CC[N+]1(C)CCN(c2cccc3c2CN([C@H](CCCN(Cc2ccccc2)Cc2ccccc2)c2ccc(OC)c(OC)c2)C3=O)CC1` [Cpd 38, 4-{2-[(1R)-4-dibenzylamino-1-(3,4-dimethoxy-phenyl)-butyl]-1-oxo-2,3-dihydro-1H-isoindol-4-yl}-1-ethyl-1-methyl-piperazin-1-ium], the Ki in assay [1] was > 300 nM. The results for the IC50 in assay [2] and in assay [3] (setting [4]) were 185 nM and 2850 nM, respectively.
